Laboratory results taken from patent publication US20170232083A1, “METHODS OF DIAGNOSIS AND TREATMENT OF CELIAC DISEASE IN CHILDREN” (priority 2014, published 2017).

Tested on: PBMC (polyclonal gluten-specific T cells) of paediatric and adult CD patients
Experiment: IFN-γ ELISpot of PBMC after 3 day oral wheat challenge (SFU, % of maximal peptide response, dominance scores, EC50; Examples 5-6)
Format: cell-based, human
Conditions: for IFN-γ ELISpot response: after oral wheat challenge; for Cross-reactive T cell response: following wheat challenge
[1] = patient G, 11-17 yrs, cut-off 10 SFU
[2] = patient H, 11-17 yrs, cut-off 10 SFU
[3] = patient ID not given, 11-17 yrs, cut-off 10 SFU
[4] = patient ID not given, max peptide 95 SFU
[5] = patient P, 11-17 yrs, cut-off 21.6 SFU
[6] = patient Q, 11-17 yrs, cut-off 10 SFU
[7] = patient U, H, 11-17 yrs, cut-off 10 SFU
[8] = patient V, 6-10 yrs, cut-off 10 SFU
[9] = patient Y, 6-10 yrs, cut-off 10 SFU
[10] = patient eleven, 6-10 yrs, cut-off 10 SFU
[11] = patient four, 3-5yrs, cut-off 10 SFU
[12] = patient four, max peptide 44 SFU
[13] = patient seven, 6-10 yrs, cut-off 10.5 SFU
[14] = patient seven, max peptide 27 SFU
[15] = patient ten, 3-5yrs, cut-off 10 SFU
[16] = patient three, 6-10 yrs, cut-off 10.5 SFU
[17] = patient two, 3-5yrs, cut-off 10 SFU
[18] = patient two, max peptide 60 SFU
[19] = patient A, 11-17 yrs, cut-off 10 SFU
[20] = patient E, H, 11-17 yrs, cut-off 10 SFU
[21] = patient F, 11-17 yrs, cut-off 10 SFU
[22] = patient H (HLA-DQ2.5 homozygote), 3-5yrs, cut-off 10 SFU
[23] = patient N, 3-5yrs, cut-off 10 SFU
[24] = patient twelve, 11-17 yrs, cut-off 10 SFU

## FLQPEQPFPEQPEQPYPEQPEQPFPQ
[1]
  IFN-γ ELISpot response: 1 SFU
[2]
  IFN-γ ELISpot response: 6 SFU
[3]
  IFN-γ ELISpot response: 23 SFU
[4]
  Significant response as percentage of maximal peptide SFU: ′′ (21-40% = ′′)
Patient J, max peptide 196 SFU
  Significant response as percentage of maximal peptide SFU: ′ (11-20% = ′)
Patient K, max peptide 53 SFU
  Significant response as percentage of maximal peptide SFU: ′′ (21-40% = ′′)
[5]
  IFN-γ ELISpot response: 11 SFU
[6]
  IFN-γ ELISpot response: 18 SFU
Patient Q, max peptide 97 SFU
  Significant response as percentage of maximal peptide SFU: ′ (11-20% = ′)
[7]
  IFN-γ ELISpot response: 26 SFU
Patient U, max peptide 81 SFU
  Significant response as percentage of maximal peptide SFU: ′′ (21-40% = ′′)
[8]
  IFN-γ ELISpot response: 12 SFU
Patient V, max peptide 35 SFU
  Significant response as percentage of maximal peptide SFU: ′′ (21-40% = ′′)
[9]
  IFN-γ ELISpot response: 6 SFU
[10]
  IFN-γ ELISpot response: 15 SFU
Patient eleven, max peptide 57 SFU
  Significant response as percentage of maximal peptide SFU: ′′ (21-40% = ′′)
[11]
  IFN-γ ELISpot response: 10 SFU
[12]
  Significant response as percentage of maximal peptide SFU: ′′ (21-40% = ′′)
[13]
  IFN-γ ELISpot response: 20 SFU
[14]
  Significant response as percentage of maximal peptide SFU: + (>70% = +)
[15]
  IFN-γ ELISpot response: 3 SFU
[16]
  IFN-γ ELISpot response: 22 SFU
[17]
  IFN-γ ELISpot response: 12 SFU
[18]
  Significant response as percentage of maximal peptide SFU: ′ (11-20% = ′)

## FPQPEQEFPQPQQ
[19]
  IFN-γ ELISpot response: 6 SFU
[20]
  IFN-γ ELISpot response: 49 SFU
Patient E, max peptide 224 SFU
  Significant response as percentage of maximal peptide SFU: ′′ (21-40% = ′′)
[21]
  IFN-γ ELISpot response: 21 SFU
Patient F, max peptide 178 SFU
  Significant response as percentage of maximal peptide SFU: ′ (11-20% = ′)
[1]
  IFN-γ ELISpot response: 4 SFU
[22]
  IFN-γ ELISpot response: 13 SFU
[2]
  IFN-γ ELISpot response: 9 SFU
[3]
  IFN-γ ELISpot response: 26 SFU
[4]
  Significant response as percentage of maximal peptide SFU: ′′ (21-40% = ′′)
Patient II, max peptide 15 SFU
  Significant response as percentage of maximal peptide SFU: + (>70% = +)
Patient J, max peptide 196 SFU
  Significant response as percentage of maximal peptide SFU: + (>70% = +)
Patient K, max peptide 53 SFU
  Significant response as percentage of maximal peptide SFU: ′′′ (41-70% = ′′′)
Patient M, max peptide 48 SFU
  Significant response as percentage of maximal peptide SFU: ′′ (21-40% = ′′)
[23]
  IFN-γ ELISpot response: 3 SFU
[5]
  IFN-γ ELISpot response: 11 SFU
[6]
  IFN-γ ELISpot response: 27 SFU
Patient Q, max peptide 97 SFU
  Significant response as percentage of maximal peptide SFU: ′′ (21-40% = ′′)
[7]
  IFN-γ ELISpot response: 15 SFU
Patient U, max peptide 81 SFU
  Significant response as percentage of maximal peptide SFU: ′ (11-20% = ′)
[8]
  IFN-γ ELISpot response: 9 SFU
[9]
  IFN-γ ELISpot response: 3 SFU
[10]
  IFN-γ ELISpot response: 1 SFU
Patient five, max peptide 48 SFU
  Significant response as percentage of maximal peptide SFU: ′′ (21-40% = ′′)
[11]
  IFN-γ ELISpot response: 10 SFU
[12]
  Significant response as percentage of maximal peptide SFU: ′′ (21-40% = ′′)
[13]
  IFN-γ ELISpot response: 11 SFU
[14]
  Significant response as percentage of maximal peptide SFU: ′′′ (41-70% = ′′′)
[15]
  IFN-γ ELISpot response: 5 SFU
[16]
  IFN-γ ELISpot response: 158 SFU
[24]
  IFN-γ ELISpot response: 7 SFU
[17]
  IFN-γ ELISpot response: 13 SFU
[18]
  Significant response as percentage of maximal peptide SFU: ′ (11-20% = ′)

## FPQPQQQFPQPQQ
[19]
  IFN-γ ELISpot response: 2 SFU
[20]
  IFN-γ ELISpot response: 12 SFU
Patient E, max peptide 224 SFU
  Significant response as percentage of maximal peptide SFU: (6-10% = ^)
[21]
  IFN-γ ELISpot response: 4 SFU
[1]
  IFN-γ ELISpot response: 1 SFU
[22]
  IFN-γ ELISpot response: 6 SFU
[2]
  IFN-γ ELISpot response: 5 SFU
[3]
  IFN-γ ELISpot response: 1 SFU
Patient II, max peptide 15 SFU
  Significant response as percentage of maximal peptide SFU: + (>70% = +)
[23]
  IFN-γ ELISpot response: 1 SFU
[5]
  IFN-γ ELISpot response: 4 SFU
[6]
  IFN-γ ELISpot response: 10 SFU
Patient Q, max peptide 97 SFU
  Significant response as percentage of maximal peptide SFU: ′ (11-20% = ′)
[7]
  IFN-γ ELISpot response: 4 SFU
[8]
  IFN-γ ELISpot response: 2 SFU
[9]
  IFN-γ ELISpot response: 6 SFU
[10]
  IFN-γ ELISpot response: 1 SFU
[11]
  IFN-γ ELISpot response: 5 SFU
[13]
  IFN-γ ELISpot response: 2 SFU
[15]
  IFN-γ ELISpot response: 4 SFU
[16]
  IFN-γ ELISpot response: 1 SFU
[24]
  IFN-γ ELISpot response: 5 SFU
[17]
  IFN-γ ELISpot response: 0 SFU

## FPQTEQPEQPFPQP
Subject A, 11-17yrs
  Cross-reactive T cell response: 1 SFU
Subject D, 11-17yrs
  Cross-reactive T cell response: 0 SFU
Subject E, 11-17yrs
  Cross-reactive T cell response: 3 SFU
Subject F, 11-17yrs
  Cross-reactive T cell response: 2 SFU
Subject G, 11-17yrs
  Cross-reactive T cell response: 2 SFU
Subject H
  Cross-reactive T cell response: 1 SFU
Subject I (3-5yrs/6-10yrs part)
  Cross-reactive T cell response: 0 SFU
Subject J
  Significant response as a percentage of maximal peptide SFU: ′′ (21-40% = ′′)
Subject J (3-5yrs/6-10yrs part)
  Cross-reactive T cell response: 67 SFU
Subject K
  Significant response as a percentage of maximal peptide SFU: ′′ (21-40% = ′′)
Subject K (3-5yrs/6-10yrs part)
  Cross-reactive T cell response: 19 SFU
Subject P, 11-17yrs
  Cross-reactive T cell response: 3 SFU
Subject Q, 11-17yrs
  Significant response as a percentage of maximal peptide SFU: ′ (11-20% = ′)
  Cross-reactive T cell response: 10 SFU
Subject T, 11-17yrs
  Cross-reactive T cell response: 7 SFU
Subject U, 11-17yrs
  Cross-reactive T cell response: 5 SFU
Subject V (3-5yrs/6-10yrs part)
  Cross-reactive T cell response: 6 SFU
Subject W (3-5yrs/6-10yrs part)
  Cross-reactive T cell response: 5 SFU
Subject Y (3-5yrs/6-10yrs part)
  Cross-reactive T cell response: 3 SFU
Subject five (3-5yrs/6-10yrs part)
  Cross-reactive T cell response: 5 SFU
Subject nine, 11-17yrs
  Cross-reactive T cell response: 0 SFU
Subject seven (3-5yrs/6-10yrs part)
  Cross-reactive T cell response: 5 SFU
Subject six (3-5yrs/6-10yrs part)
  Cross-reactive T cell response: 4 SFU
Subject ten
  Significant response as a percentage of maximal peptide SFU: + (>70% = +)
Subject ten (3-5yrs/6-10yrs part)
  Cross-reactive T cell response: 13 SFU
Subject two (3-5yrs/6-10yrs part)
  Cross-reactive T cell response: 3 SFU

## GIIQPQQPAQL
[1]
  IFN-γ ELISpot response: 0 SFU
[2]
  IFN-γ ELISpot response: 1 SFU
[3]
  IFN-γ ELISpot response: 2 SFU
Patient II, max peptide 15 SFU
  Significant response as percentage of maximal peptide SFU: + (>70% = +)
Patient K, max peptide 53 SFU
  Significant response as percentage of maximal peptide SFU: ′′ (21-40% = ′′)
[5]
  IFN-γ ELISpot response: 7 SFU
[6]
  IFN-γ ELISpot response: 0 SFU
[7]
  IFN-γ ELISpot response: 4 SFU
[8]
  IFN-γ ELISpot response: 5 SFU
[9]
  IFN-γ ELISpot response: 2 SFU
[10]
  IFN-γ ELISpot response: 1 SFU
[11]
  IFN-γ ELISpot response: 0 SFU
[13]
  IFN-γ ELISpot response: 3 SFU
[15]
  IFN-γ ELISpot response: 5 SFU
[16]
  IFN-γ ELISpot response: 3 SFU
[17]
  IFN-γ ELISpot response: 0 SFU

## GLERPWQEQPLPPQ
[19]
  IFN-γ ELISpot response: 4 SFU
[20]
  IFN-γ ELISpot response: 0 SFU
[21]
  IFN-γ ELISpot response: 0 SFU
[1]
  IFN-γ ELISpot response: 0 SFU
[22]
  IFN-γ ELISpot response: 0 SFU
[2]
  IFN-γ ELISpot response: 16 SFU
Patient H, max peptide 17 SFU
  Significant response as percentage of maximal peptide SFU: + (>70% = +)
[3]
  IFN-γ ELISpot response: 1 SFU
[23]
  IFN-γ ELISpot response: 0 SFU
[5]
  IFN-γ ELISpot response: 7 SFU
[6]
  IFN-γ ELISpot response: 22 SFU
Patient Q, max peptide 97 SFU
  Significant response as percentage of maximal peptide SFU: ′′ (21-40% = ′′)
[7]
  IFN-γ ELISpot response: 1 SFU
[8]
  IFN-γ ELISpot response: 7 SFU
[9]
  IFN-γ ELISpot response: 9 SFU
[10]
  IFN-γ ELISpot response: 1 SFU
[11]
  IFN-γ ELISpot response: 6 SFU
[13]
  IFN-γ ELISpot response: 11 SFU
[14]
  Significant response as percentage of maximal peptide SFU: ′′′ (41-70% = ′′′)
[15]
  IFN-γ ELISpot response: 5 SFU
[16]
  IFN-γ ELISpot response: 3 SFU
[24]
  IFN-γ ELISpot response: 2 SFU
[17]
  IFN-γ ELISpot response: 1 SFU

## GQSGYYPTSPQQS
[19]
  IFN-γ ELISpot response: 5 SFU
[20]
  IFN-γ ELISpot response: 0 SFU
[21]
  IFN-γ ELISpot response: 10 SFU
Patient F, max peptide 178 SFU
  Significant response as percentage of maximal peptide SFU: (6-10% = ^)
[1]
  IFN-γ ELISpot response: 1 SFU
[22]
  IFN-γ ELISpot response: 2 SFU
[2]
  IFN-γ ELISpot response: 4 SFU
[3]
  IFN-γ ELISpot response: 1 SFU
Patient II, max peptide 15 SFU
  Significant response as percentage of maximal peptide SFU: + (>70% = +)
[23]
  IFN-γ ELISpot response: 0 SFU
[5]
  IFN-γ ELISpot response: 10 SFU
[6]
  IFN-γ ELISpot response: 5 SFU
[7]
  IFN-γ ELISpot response: 4 SFU
[8]
  IFN-γ ELISpot response: 3 SFU
[9]
  IFN-γ ELISpot response: 0 SFU
[10]
  IFN-γ ELISpot response: 4 SFU
[11]
  IFN-γ ELISpot response: 3 SFU
[13]
  IFN-γ ELISpot response: 11 SFU
[14]
  Significant response as percentage of maximal peptide SFU: ′′′ (41-70% = ′′′)
[15]
  IFN-γ ELISpot response: 5 SFU
[16]
  IFN-γ ELISpot response: 6 SFU
[24]
  IFN-γ ELISpot response: 2 SFU
[17]
  IFN-γ ELISpot response: 2 SFU
